Results from paper PMC5244392, “Interspecies cathelicidin comparison reveals divergence in antimicrobial activity, TLR modulation, chemokine induction and regulation of phagocytosis” (Scientific Reports, 2017).

Experiments:
[1] = system: E. coli O78; assay: Bacterial growth delay (Bioscreen C), E. coli; assay type: cell-based, Escherichia coli; conditions: for Cmax, E. coli, DMEM: DMEM + FCS (10%); for Cmax, E. coli, DMEM / Cmax: cathelicidin concentration resulting in a delay in bacterial growth with minimal 10 hours, E. coli, MHB: 1 × 10^6 CFU/ml, peptide 0.31-20 μM, 16 h, 37 °C, — = no Cmax reached up to 20 μM; for Cmax, E. coli, DMEM / Cmax: cathelicidin concentration resulting in a delay in bacterial growth with minimal 10 hours, E. coli, MHB / Max: hours growth delay with 20 μM cathelicidin, E. coli, DMEM / Max: hours growth delay with 20 μM cathelicidin, E. coli, MHB: N = 4; for Delay of the growth of E. coli / Summary class, antimicrobial activity E. coli DMEM / Max: hours growth delay with 20 μM cathelicidin, E. coli, DMEM: DMEM + FCS; for Delay of the growth of E. coli: peptide concentration not given (0.31-20 μM tested); for Summary class, antimicrobial activity E. coli DMEM / Summary class, antimicrobial activity E. coli MHB: − is not defined in the key; for Cmax: cathelicidin concentration resulting in a delay in bacterial growth with minimal 10 hours, E. coli, MHB: 200 RPM; for Cmax: cathelicidin concentration resulting in a delay in bacterial growth with minimal 10 hours, E. coli, MHB / Max: hours growth delay with 20 μM cathelicidin, E. coli, MHB: time to OD 0.6 vs control; for Max: hours growth delay with 20 μM cathelicidin, E. coli, DMEM / Max: hours growth delay with 20 μM cathelicidin, E. coli, MHB: 20 μM peptide, given if no Cmax was reached
Procedure: E. coli O78 (Zoetis Animal Health, Kalamazoo, MI, USA), E. coli ATCC 25922, Staphylococcus aureus ATCC 29213, and methicillin resistant Staphylococcus aureus (MRSA) (WKZ-2, human clinical isolate) were grown overnight from a glycerol stock in Mueller Hinton Broth (MHB) (Becton Dickinson, USA). Before use, bacteria were grown to mid-log phase in MHB for 2 hours at 37 °C, 200 RPM. Murine RAW264.7 macrophages (ATCC-TIB-71) were obtained from the American Type Culture Collection (ATCC, Manassas, VA, USA) and cultured in DMEM (41966-029; Thermo Fisher Scientific, Waltham, MA, USA) supplemented with 10% FCS (Bodinco B.V., Alkmaar, the Netherlands) (DMEM + FCS) at 37 °C, 5.0% CO2. Cells were seeded in 96-wells plates at 5 × 10^5 cells/ml or 12-wells plates at 2 × 10^5/ml for adherence overnight prior to stimulation.
Peptides (0.63 to 40 μM) and bacteria mid-log cultures (2 * 10^6 CFU/ml) were prepared in MHB or DMEM + FCS and mixed (100 μl peptide + 100 μl bacterial culture) in a Bioscreen C analyzer plate (Oy Growth Curves Ab Ltd, Helsingfors, Finland). Plates were placed in a Bioscreen C analyzer (Oy Growth Curves Ab Ltd) and bacteria were grown for 16 h at 37 °C with 200 RPM. The OD was measured every 15 minutes using a wideband filter (450–580 nm) to measure bacterial growth. The time needed grow above an OD of 0.6 was determined for all concentrations. Activity of peptides was expressed as the Cmax, the concentration of peptide required to delay the growth for 10 h compared to the control. Or, for peptides with low activity (no Cmax), activity was expressed as the hours of growth delay at 20 μM. Unlike the classic MIC and MBC determination used in microbiology, this method also enabled comparison of peptides with low antibacterial activity.
Twelve cathelicidins from 6 different species were selected for this study, namely: human LL-37, murine CRAMP, dog K9CATH, equine CATH (eCATH)-1, -2 and -3, chicken CATH (chCATH)-1, -2, and -3, porcine PMAP-23 and -36 and PR-39 (Table 1). Antimicrobial activity against E. coli and MRSA was directly compared under standardized conditions in MHB, a medium optimized for bacterial growth. Bacterial growth delay was defined as the delay in hours for peptide-treated bacteria to reach an OD of 0.6, compared to the non-treated control. Cmax is the minimal concentration needed to delay growth for a minimum of 10 hours compared to the non-treated control (Table 1 and Fig. 1A).
Figure 1 Antibacterial activity of cathelicidins. E. coli and MRSA (1 × 10^6 CFU/ml) of were grown in MHB or DMEM ± FCS for 16 hours under constant shaking (200 RPM). Every 15 minutes the OD was measured. Growth delay was defined as the time needed for peptide-treated bacteria to grow above an OD of 0.6 compared to the control bacteria (no peptide added) (A). Cathelicidins were tested in different concentrations (0.31 μM, 0.63 μM, 1.25 μM, 2.5 μM, 5 μM, 10 μM, and 20 μM) to determine the antimicrobial activity in MHB against E. coli (B) or MRSA (C) and in more physiological medium DMEM + FCS (D,E). Results are presented as average +/− SEM (N = 4).

[2] = system: RAW264.7 cells; assay: Phagocytosis assay with fluorescent latex beads; assay type: cell-based, murine; conditions: 30 min; for Summary class, phagocytosis / Effect on bead uptake (phagocytosis), in words: latex beads 10 per cell; for Summary class, phagocytosis: 37 °C, MFI corrected for 0 °C, peptide 0.31-5 μM, − = no significant effect, N = 3; for Effect on bead uptake (phagocytosis), in words: peptide 0.31, 1.25 and 5 μM
Procedure: Red fluorescent (λex 575 nm and λem 610 nm) carboxylate-modified polystyrene latex beads (0.5 μm; Sigma Aldrich, St. Louis, MO, USA) were washed three times with PBS and resuspended in culture medium. Peptide dilutions were prepared in culture medium and added to RAW264.7 cells, directly followed by the latex beads (ratio 10 beads to 1 cell). Cells were incubated for 30 minutes at 37 °C, 5% CO2 (energy-dependent uptake) or 0 °C (non-specific adherence), after which cells were washed extensively with ice-cold PBS supplemented with 1% FCS and 0.01% NaN3, to remove all free beads. After washing, cells were scraped and resuspended in FACS buffer (PBS supplemented with 0.5% BSA). Samples were measured with the BD FACSCanto II flow cytometer (BD Biosciences, San Jose, CA, USA) and analyzed with FlowJo software (Ashland, OR, USA). Mean fluorescence intensity (MFI), corrected for non-specific adherence, was used as an indicator for the number of beads taken up.
While the above-described functions of cathelicidins are well-known, relatively little is known about the influence of cathelicidins on phagocytosis. Therefore, RAW264.7 cells were incubated with fluorescent beads to study the effect of cathelicidins on phagocytosis. The uptake was corrected for fluorescence measured after incubation on ice instead of 37 °C, which inhibits the active process of phagocytosis. After 30 minutes, 90% of the RAW264.7 cells took up latex beads (Fig. 4A). Histograms exemplify changes in bead phagocytosis with different concentrations of K9CATH (Fig. 4B), eCATH-2 (Fig. 4C) and chCATH-3 (Fig. 4D). Effect of all cathelicidins are depicted by the average mean fluorescence intensity (MFI) in Fig. 4E.
Figure 4 Effects of cathelicidins on phagocytosis by RAW264.7 cells. RAW264.7 cells were incubated with cathelicidins (0.31 μM, 1.25 μM, and 5 μM) and red fluorescent latex beads (10 beads to 1 cell) at 37 °C (energy dependent uptake) or on ice (non-specific adherence) for 30 minutes. Histograms show control (no peptide present) bead uptake at 37 °C (gray, filled) and 0 °C (black line) (A), or uptake in presence of different concentrations of indicated cathelicidins (B–D); 0 μM (red, filled), 0.31 μM (black line), 1.25 μM (green line) or 5 μM (blue line). Uptake was quantified by determining the MFI after correction for 0 °C control (E). Results are presented as average +/− SEM (N = 3). Statistical differences were determined by Two-way ANOVA with Bonferroni post-hoc test.

Substance	Cmax, E. coli, DMEM [1]	Delay of the growth of E. coli [1]	Summary class, antimicrobial activity E. coli DMEM [1]	Cmax: cathelicidin concentration resulting in a delay in bacterial growth with minimal 10 hours, E. coli, MHB ([1]; MHB)	Summary class, antimicrobial activity E. coli MHB ([1]; MHB)	Summary class, phagocytosis [2]	Effect on bead uptake (phagocytosis), in words [2]	Max: hours growth delay with 20 μM cathelicidin, E. coli, DMEM [1]	Max: hours growth delay with 20 μM cathelicidin, E. coli, MHB ([1]; MHB)	Activity against E. coli in MHB, in words ([1]; MHB, peptide up to 20 μM)	Increase of bead uptake ([2]; latex beads, not significant)
RFGRFLRKIRRFRPKVTITIQGSARF-NH2 [chCATH-2, chicken CATH-2, C-terminal amide, 26 residues, charge +9]	10 µM	at least 7 hours	+++ (+++ = Cmax at ≤20 μM)	5 µM	+++ (+++ = Cmax at ≤20 μM)	↓↓ (↓↓ = significant decrease ≤5 μM)	reduced bead-uptake in a dose-dependent manner				
RRRPRPPYLPRPRPPPFFPPRLPPRIPPGFPPRFPPRFP [PR-39, porcine proline-rich cathelicidin forming a polyproline helix, 39 residues, charge +10]		at least 7 hours	+ (+ = >4 hours inhibition at 20 μM)	20 µM	+++ (+++ = Cmax at ≤20 μM)		did not affect bead uptake	7.0 h			
RIIDLLWRVRRPQKPKFVTVWVR [PMAP-23, porcine α-helical cathelicidin, 23 residues, charge +6]					++ (++ = >8 hours inhibition at 20 μM)	↓↓ (↓↓ = significant decrease ≤5 μM)	reduced bead-uptake in a dose-dependent manner	3.5 h	9.5 h		
RLKELITTGGQKIGEKIRRIGQRIKDFFKNLQPREEKS [Peptide K9CATH, dog cathelicidin, 38 residues, charge +6]						↓↓ (↓↓ = significant decrease ≤5 μM)	reduced bead-uptake in a dose-dependent manner	1.5 h	3.0 h	no or very little activity	
KRRHWFPLSFQEFLEQLRRFRDQLPFP [eCATH-2, equine CATH-2, 27 residues, charge +4]					++ (++ = >8 hours inhibition at 20 μM)			2.0 h	9.0 h		~50%
Ac-GRFRRLRKKTRKRLKKIGKVLKWIPPIVGSIPLGCG [PMAP-36, porcine α-helical cathelicidin, N-acetylated, 36 residues, charge +13]	2.5 µM	at least 7 hours	+++ (+++ = Cmax at ≤20 μM)	5 µM	+++ (+++ = Cmax at ≤20 μM)	↓↓ (↓↓ = significant decrease ≤5 μM)	only reduced phagocytosis at 5 μM				
GLLRKGGEKIGEKLKKIGQKIKNFFQKLVPQPEQ [CRAMP, murine cathelicidin, 34 residues, charge +6]					++ (++ = >8 hours inhibition at 20 μM)	↓↓ (↓↓ = significant decrease ≤5 μM)	reduced bead-uptake in a dose-dependent manner	2.5 h	9.0 h		
RVKRFWPLVPVAINTVAAGINLYKAIRRK [chCATH-3, chicken CATH-3, 29 residues, charge +7]			+ (+ = >4 hours inhibition at 20 μM)	20 µM	+++ (+++ = Cmax at ≤20 μM)		did not affect bead uptake	5.5 h			
